Data taken from US9796755B2, “Methods of treating depression and other related diseases” (Northwestern University, priority 2009, dated 2017).
Like-named read-outs stand apart in the source and are kept apart here. Where a SMILES comes first, the peptide text is derived from it.

Legend:
β-catenin = test: Total β-catenin protein level in medial prefrontal cortex; format: in vivo, rat; settings: 24 hrs after GLYX-13 3 mg/kg IV or ketamine 10 mg/kg IV
rats [1] = test: Porsolt test after microinjection into medial prefrontal cortex or motor cortex; format: in vivo, rat
Procedure: To determine whether GLYX-13 acts in an area of the brain that is clinically relevant for depression, GLYX-13 was administered to either the medial prefrontal cortex (MPFC), which is associated with mood and depression, or to the motor cortex (FIG. 4). Mean time spent immobile in the Porsolt test was determined for groups of 10 three-month old male Fisher Brown Norway FI (FBNFI) rats pretreated with a single injection of GLYX-13 (1, 10 ug/side) or a single saline vehicle injection (0.5 ul/1 min) bilaterally into the medial prefrontal cortex or motor cortex (dorsal control) in animals with surgically implanted chronic indwelling cannulae aimed at the MPFC. […] Animals received a single 15 min training swim session one day before dosing.
The Porsolt test adapted for use in rats was performed as above. Animals were placed in a 46 cm tall×20 cm in diameter clear plastic tube filled to 30 cm with tap water (23±1° C.) for 15 min on the first day (habituation) and […] on the subsequent test day.
Bilateral 22-gauge guide cannulae (Plastic Products, USA) were stereotaxically implanted into the infralimbic/prelimbic cortex (+2.7 mm anterior,±1.2 mm lateral, 3.1 mm. ventral to bregma; cannulae angled 12° away from the midline) or dorsal control primary secondary motor cortex. (+2.7 mm anterior,±1.2 mm lateral, 1.0 mm ventral to bregma; cannulae angled 12° away from the midline). Animals were allowed 1 week to recover from surgery before the start of testing. After the completion of behavioral testing, histology was conducted for cannulae tip location. For medial prefrontal cannulae, all tips were located within the infralimbic or prelimbic cortex 2.2-3.2 mm anterior to bregma. For motor cortex cannulae, all tips were located, within the primary or secondary motor cortex 2.2-3.2 mm anterior to bregma.

[2] = CSF concentration of GLYX-13 after IV administration (LC-MS/MS); format: in vivo; settings: male, Sprague Dawley, rat, cerebrospinal fluid (CSF), rats, read-out: Cmax within the CSF compartment
Procedure: Male Sprague Dawley rats (250-300 g) received intravenous injections of GLYX-13 (3-10 mg/kg), briefly anesthetized with isoflurane, and cerebrospinal fluid (CSF) samples drawn and stored at −70° C. until analysis.
CSF samples were precipitated with internal standard Pro-Thr-Pro-Ser-NH2 (SEQ ID NO: 20) in 400 μl of acetonitrile. Supernatant extract was separated by HPLC (LC-20AD, Shimadzu, Japan) using a Synergi 4μ Hydro-RP 8A column (Phenomenex, USA) with mobile phase of 100 mM ammonium formate with 0.1% formic acid for 0 1 minute followed by acetonitrile with 0.1% formic acid and samples were analyzed by LC-MS/MS (API4000, Applied Biosystems, USA) in ESI positive ion mode and the GLYX-13 (199.1 and 216.1) and IS (202.3) daughter ions quantified by multiple reaction monitoring. The lower limit of quantitation for the assay was 26.3 nM GLYX-13.

rats [3] = test: Conditioned place preference; format: in vivo, rat; settings: GLYX-13 10 mg/kg IV; ketamine 10 mg/kg IV
Procedure: Animals were trained with GLYX-13 (10 mg/kg, IV), ketamine (10 mg/kg, IV), or saline vehicle (1 mL/kg, IV) utilizing an unbiased two-chamber conditioned place preference apparatus.

[4] = test system: glycogen synthase kinase 3β (GSK-3β); test: Total and phosphoserine-9 GSK-3β by ELISA in medial prefrontal cortex; format: in vivo, rat; settings: 24 hrs after GLYX-13 3 mg/kg IV or ketamine 10 mg/kg IV
Text: Total and Phosphoserine-9 glycogen synthase kinase 3β (GSK-3β) were quantified by ELISA according to the manufacturer's instructions (catalog numbers ADI-900-144 and ADI-900-123A, Assay Designs, USA). Total and phosphoserine-845 GluR1 were quantified by Western blot.

C[C@@H](O)[C@H](N)C(=O)N1CCC[C@H]1C(=O)N1CCC[C@H]1C(=O)N[C@H](C(N)=O)[C@@H](C)O [GLYX-13, L-threonyl-L-prolyl-L-prolyl-L-threonine amide] (H-TPPT-NH2)
total β-catenin (β-catenin): reduced
effect on floating time in the Porsolt test (rats [1]; MPFC injection 1 μg/side, two weeks post dosing, independent group): Reduction in floating time was still apparent
effect on floating time in the Porsolt test (rats [1]; MPFC injections, 1 and 10 μg/side, 20 min post dosing): reduced floating time
reduction in floating compared to saline control or GLYX-13 injected into motor cortex (rats [1]; injected into MPFC, FBNF1 rats, 20 min post injection, Mean±SEM): 50±5%
Cmax ([2]; 3 mg/kg IV): 60 nM
Cmax ([2]; 10 mg/kg IV): 200 nM
conditioned place preference, an indicator of abuse potential (rats [3]): did not exhibit either of these effects
phosphoserine-9 GSK-3β/total GSK-3β ratio [4]: reduced
